Reference: PubChem BioAssay AID330 (DTP/NCI, 2004)
Values joined by “and” are separate entries in the source; they are usually repeats but may differ in a detail not shown here. Identical values can stand only once. Inconclusive results and toxic doses are left out.

Test system: P388 leukemia ip, CD2F1 mice, survival T/C
Assay: NCI In Vivo Anticancer Drug Screen. Data for tumor model P388 Leukemia (intraperitoneal) in CD2F1 (CDF1) mice
Conditions: endpoint: median survival time, higher = longer survival
Method in brief: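 Mice carrying the transplanted tumor received test compound or vehicle. Survival was recorded in each group, and the value is the treated-group measurement divided by that of the vehicle-treated control group.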

[1] = dose: 60.0 mg/kg/injection, schedule: Q01DX005 (ip), vehicle: saline with Tween-80
[2] = dose: 120.0 mg/kg/injection, schedule: Q01DX005 (ip), vehicle: saline with Tween-80
[3] = dose: 240.0 mg/kg/injection, schedule: Q01DX005 (ip), vehicle: saline with Tween-80
[4] = dose: 100.0 mg/kg/injection, schedule: Q04DX002 (ip), vehicle: Klucel (hydroxypropylcellulose) (HPC)
[5] = dose: 200.0 mg/kg/injection, schedule: Q04DX002 (ip), vehicle: Klucel (hydroxypropylcellulose) (HPC)
[6] = dose: 400.0 mg/kg/injection, schedule: Q04DX002 (ip), vehicle: Klucel (hydroxypropylcellulose) (HPC)
[7] = dose: 12.5 mg/kg/injection, schedule: Q01DX009 (ip), vehicle: Klucel (hydroxypropylcellulose) (HPC)
[8] = dose: 25.0 mg/kg/injection, schedule: Q01DX009 (ip), vehicle: Klucel (hydroxypropylcellulose) (HPC)
[9] = dose: 50.0 mg/kg/injection, schedule: Q01DX009 (ip), vehicle: Klucel (hydroxypropylcellulose) (HPC)
[10] = dose: 100.0 mg/kg/injection, schedule: Q01DX009 (ip), vehicle: Klucel (hydroxypropylcellulose) (HPC)
[11] = dose: 200.0 mg/kg/injection, schedule: Q01DX009 (ip), vehicle: Klucel (hydroxypropylcellulose) (HPC)
[12] = dose: 50.0 mg/kg/injection, schedule: Q01DX005 (ip), vehicle: saline with Tween-80
[13] = dose: 100.0 mg/kg/injection, schedule: Q01DX005 (ip), vehicle: saline with Tween-80
[14] = dose: 200.0 mg/kg/injection, schedule: Q01DX005 (ip), vehicle: saline with Tween-80
[15] = dose: 50.0 mg/kg/injection, schedule: Q01DX005 (ip), vehicle: saline
[16] = dose: 100.0 mg/kg/injection, schedule: Q01DX005 (ip), vehicle: saline
[17] = dose: 200.0 mg/kg/injection, schedule: Q01DX005 (ip), vehicle: saline
[18] = dose: 50.0 mg/kg/injection, schedule: Q01DX009 (ip), vehicle: saline
[19] = dose: 100.0 mg/kg/injection, schedule: Q01DX009 (ip), vehicle: saline

SMILES: Cc1ccc(NC(=O)N(CCCl)N=O)c(C)c1
- T/C (dose: 16.5 mg/kg/injection, schedule: Q04DX003 (ip), vehicle: saline with Tween-80): 190 % of control
- T/C (dose: 25.0 mg/kg/injection, schedule: Q04DX003 (ip), vehicle: saline with Tween-80): 250 % of control
- T/C (dose: 37.5 mg/kg/injection, schedule: Q04DX003 (ip), vehicle: saline with Tween-80): 90 % of control

SMILES: Cc1cn(CCCn2cnc3c(=O)[nH]cnc32)c(=O)[nH]c1=O
- T/C [1]: 92 % of control
- T/C [2]: 101 % of control
- T/C [3]: 88 % of control

SMILES: C=COC(=O)C(Cc1ccc(Cl)cc1)NC(=O)OCc1ccccc1 (centres undefined)
- T/C [4]: 97 % of control
- T/C [5]: 91 % of control
- T/C [6]: 95 % of control

SMILES: CCSC(=S)S(=O)(=O)c1ccc(C)cc1
- T/C [7]: 120 % of control
- T/C [8]: 105 % of control
- T/C [9]: 115 % of control and 123 % of control

SMILES: Cc1c([N+](=O)[O-])/c(=N/O)c2c(=O)c([N+](=O)[O-])coc2n1O
- T/C [9]: 108 % of control
- T/C [10]: 99 % of control
- T/C [11]: 90 % of control

SMILES: CCN(CC)CCOC(=O)C(C1CCCCC1)C1(O)CCCCCC1 (centres undefined)
- T/C [12]: 104 % of control
- T/C [13]: 102 % of control
- T/C [14]: 95 % of control

SMILES: CC1=C(O)CC(/C(C)=C\Cl)OC1=O (centres undefined)
- T/C [4]: 101 % of control
- T/C [5]: 98 % of control
- T/C [6]: 104 % of control

SMILES: Cc1ccc(S(=O)(=O)N(CCOc2c3occc3cc3ccc(=O)oc23)CCN(CCN(CCOc2c3occc3cc3ccc(=O)oc23)S(=O)(=O)c2ccc(C)cc2)S(=O)(=O)c2ccc(C)cc2)cc1
- T/C (dose: 100.0 mg/kg/injection, schedule: Q01DX001 (ip), vehicle: saline with Tween-80): 87 % of control
- T/C (dose: 200.0 mg/kg/injection, schedule: Q01DX001 (ip), vehicle: saline with Tween-80): 86 % of control

SMILES: C[As](C)SCC(N)C(=O)O (centres undefined)
- T/C [7]: 107 % of control
- T/C [8]: 106 % of control
- T/C [9]: 103 % of control and 110 % of control

SMILES: CCCCCCCCCc1ccc(OC(C)OCCOCCOCC)cc1 (centres undefined)
- T/C [1]: 98 % of control
- T/C [2]: 98 % of control
- T/C [3]: 98 % of control

SMILES: Oc1ccc2ccccc2c1/C=N/NC(=S)N/N=C/c1c(O)ccc2ccccc12
- T/C (dose: 0.38 mg/kg/injection, schedule: Q01DX005 (ip), vehicle: saline with Tween-80): 97 % of control
- T/C (dose: 0.75 mg/kg/injection, schedule: Q01DX005 (ip), vehicle: saline with Tween-80): 97 % of control
- T/C (dose: 1.5 mg/kg/injection, schedule: Q01DX005 (ip), vehicle: saline with Tween-80): 90 % of control and 92 % of control
- T/C (dose: 6.0 mg/kg/injection, schedule: Q01DX005 (ip), vehicle: saline with Tween-80): 86 % of control
- T/C [13]: 96 % of control
- T/C [14]: 116 % of control

SMILES: CC(=O)N(C(C)=O)N(C(C)=O)c1cc2ccccc2cn1
- T/C [12]: 88 % of control
- T/C [13]: 91 % of control

SMILES: CC(=O)Nc1ccc(NC(=S)Nc2ccccc2C(F)(F)F)cc1
- T/C [9]: 96 % of control
- T/C [10]: 92 % of control
- T/C [11]: 87 % of control

SMILES: Cc1ccc2nc(CC(=O)c3cccnc3)c(CC(=O)c3cccnc3)nc2c1
- T/C [1]: 93 % of control
- T/C [2]: 100 % of control
- T/C [3]: 100 % of control

SMILES: Cc1cccc(Nc2n[nH]c(N)n2)c1
- T/C [9]: 91 % of control
- T/C [10]: 94 % of control

SMILES: CCOC(=O)c1c[nH]c2c(=O)n(C)c(=O)[nH]c12
- T/C (dose: 100.0 mg/kg/injection, schedule: Q04DX003 (ip), vehicle: saline with Tween-80): 93 % of control
- T/C (dose: 200.0 mg/kg/injection, schedule: Q04DX003 (ip), vehicle: saline with Tween-80): 100 % of control

SMILES: Cn1c(N)c(C(=O)/C=C/c2ccccc2)c(=O)n(CCN2CCOCC2)c1=O
- T/C [15]: 100 % of control
- T/C [16]: 94 % of control
- T/C [17]: 89 % of control

SMILES: CCOC(=O)C1Nc2ccc(Br)cc2C(C(=O)OCC)N1c1ccc(Br)cc1 (centres undefined)
- T/C [9]: 102 % of control
- T/C [10]: 102 % of control
- T/C [11]: 94 % of control

SMILES: O=c1cc(F)cc[nH]1
- T/C [15]: 103 % of control
- T/C [16]: 104 % of control
- T/C [17]: 109 % of control

SMILES: CC(=O)OC1CC2C(=[N+]=[N-])C(=O)C1(C)C2(C)C (centres undefined)
- T/C [12]: 108 % of control
- T/C [13]: 107 % of control
- T/C [14]: 108 % of control

SMILES: COC1C(CO)OC(n2c3c(Cl)cccc3c3c4c(c5c6cccc(Cl)c6[nH]c5c32)C(=O)NC4=O)C(O)C1O (centres undefined)
- T/C (dose: 25.0 mg/kg/injection, schedule: Q01DX005 (ip), vehicle: saline with Tween-80): 155 % of control
- T/C (dose: 50.0 mg/kg/injection, schedule: Q01DX005 (ip), vehicle: distilled water + Tween-80): 152 % of control
- T/C [12]: 155 % of control
- T/C (dose: 100.0 mg/kg/injection, schedule: Q01DX005 (ip), vehicle: distilled water + Tween-80): 158 % of control
- T/C [13]: 155 % of control
- T/C (dose: 200.0 mg/kg/injection, schedule: Q01DX005 (ip), vehicle: distilled water + Tween-80): 152 % of control
- T/C [14]: 159 % of control
- T/C (dose: 400.0 mg/kg/injection, schedule: Q01DX005 (ip), vehicle: saline with Tween-80): 182 % of control

SMILES: CS(=O)(=O)O/C=C1\C(=O)OC2CCCCC12 (centres undefined)
- T/C (dose: 18.8 mg/kg/injection, schedule: Q01DX009 (ip), vehicle: distilled water + Tween-80): 108 % of control
- T/C (dose: 37.5 mg/kg/injection, schedule: Q01DX009 (ip), vehicle: distilled water + Tween-80): 107 % of control and 116 % of control
- T/C (dose: 75.0 mg/kg/injection, schedule: Q01DX009 (ip), vehicle: distilled water + Tween-80): 116 % of control and 118 % of control
- T/C (dose: 150.0 mg/kg/injection, schedule: Q01DX009 (ip), vehicle: distilled water + Tween-80): 120 % of control

SMILES: CCC(=O)NC(CC(C)C)C(=O)NC(CC(C)C)C(=O)NC(C=O)CCCN=C(N)N (centres undefined) (tested in a mixture with another compound)
- T/C (dose: 6.25 mg/kg/injection, schedule: Q01DX009 (ip), vehicle: saline): 103 % of control
- T/C (dose: 12.5 mg/kg/injection, schedule: Q01DX009 (ip), vehicle: saline): 102 % of control and 104 % of control
- T/C (dose: 25.0 mg/kg/injection, schedule: Q01DX009 (ip), vehicle: saline): 104 % of control and 96 % of control
- T/C [18]: 102 % of control and 108 % of control
- T/C [19]: 110 % of control

SMILES: CCC(=C(c1ccc(OCCN(C)C)cc1)c1cccc(O)c1)c1ccccc1 (mixture of isomers)
- T/C (dose: 60.0 mg/kg/injection, schedule: Q01DX005 (ip), vehicle: Klucel (hydroxypropylcellulose) (HPC)): 104 % of control
- T/C (dose: 120.0 mg/kg/injection, schedule: Q01DX005 (ip), vehicle: Klucel (hydroxypropylcellulose) (HPC)): 107 % of control

SMILES: O=C(NC1CC1)C(Cl)Cl
- T/C (dose: 50.0 mg/kg/injection, schedule: Q01DX005 (ip), vehicle: Klucel (hydroxypropylcellulose) (HPC)): 103 % of control
- T/C (dose: 100.0 mg/kg/injection, schedule: Q01DX005 (ip), vehicle: Klucel (hydroxypropylcellulose) (HPC)): 99 % of control

SMILES: CC1C(=O)CCC2(C)CCC3C(OC(=O)C3(C)[Se]c3ccccc3)C12 (centres undefined)
- T/C (dose: 100.0 mg/kg/injection, schedule: Q04DX002 (ip), vehicle: saline with Tween-80): 97 % of control
- T/C (dose: 200.0 mg/kg/injection, schedule: Q04DX002 (ip), vehicle: saline with Tween-80): 98 % of control

SMILES: O=[N+]([O-])c1ccccc1S(=O)(=O)N(CCCCN(S(=O)(=O)c1ccccc1[N+](=O)[O-])S(=O)(=O)c1ccccc1[N+](=O)[O-])S(=O)(=O)c1ccccc1[N+](=O)[O-]
- T/C [1]: 93 % of control
- T/C [2]: 91 % of control
- T/C [3]: 87 % of control

SMILES: OCCN(CCO)c1ccc2ccc(N(CCO)CCO)nc2n1
- T/C (dose: 50.0 mg/kg/injection, schedule: Q04DX003 (ip), vehicle: Klucel (hydroxypropylcellulose) (HPC)): 103 % of control
- T/C (dose: 100.0 mg/kg/injection, schedule: Q04DX003 (ip), vehicle: Klucel (hydroxypropylcellulose) (HPC)): 103 % of control
- T/C (dose: 200.0 mg/kg/injection, schedule: Q04DX003 (ip), vehicle: Klucel (hydroxypropylcellulose) (HPC)): 100 % of control

SMILES: C=CC1(O)CCCCC1
- T/C [18]: 97 % of control
- T/C [19]: 100 % of control
- T/C (dose: 200.0 mg/kg/injection, schedule: Q01DX009 (ip), vehicle: saline): 107 % of control

SMILES: Nc1nnc2nc(C(C(=O)c3ccc(Cl)cc3Cl)c3nc4nnc(N)n4[nH]c3=O)c(=O)[nH]n12
- T/C [12]: 92 % of control
- T/C [13]: 100 % of control
- T/C [14]: 100 % of control
